Data published in patent US10653779B2, “Formulations with reduced oxidation” (Genentech, Inc., priority 2013, dated 2020).

Assay: Photosensitivity screening: H2O2 formation by antioxidant candidates upon light exposure (Amplex Ultra Red Assay)
Assay type: physicochemical
Description: As a screening tool, antioxidant candidates were exposed to light for four hours at 250 W/m^2 and the resulting H2O2 formation was quantified by the Amplexassay. Specifically, antioxidants were prepared to 1 mM in 20 mM histidine acetate buffer at pH 5.5. The 1 mM antioxidant solutions were aliquoted into glass vials (2 mL/glass vial) and exposed to four hours of light at 250 W/m^2 in an Atlas SunTest CPS+ Xenon Test Instrument (Chicago, Ill.). Total UV dose was 90 watt-hours/square meter and total visible dose was 0.22 million lux hours over the 4-hour period. Control vials were wrapped in aluminum foil and treated similarly. The amount of hydrogen peroxide generated after exposure to light was measured using the Amplex® Ultra Red Assay (Invitrogen, Carlsbad, Calif.) following the manufacturer's recommended procedure. On addition of horseradish peroxidase (HRP), the dye reacted 1:1 stoichiometrically with H2O2, resulting in the production of fluorescent oxidation product resorufin. In this study, fluorescence readings were obtained using a Spectra Max M2 Micro-plate Reader (Molecular Devices, Sunnyvale, Calif.) with excitation and emission set at 560 nm and 590 nm, respectively. Final H2O2 concentrations were determined using a standard curve ranging from 0 μm to 20 μm. […]

Structure (SMILES): N[C@@H](Cc1c[nH]c2ccccc12)C(=O)O [L-Trp, L-Tryptophan]
- (H2O2 produced by Compound)/(H2O2 produced by L-Trp) (1 mM in 20 mM histidine acetate pH 5.5, four hours of light at 250 W/m^2): 1
- H2O2 production upon light exposure compared to L-Trp (in words) (1 mM, 20 mM L-His-acetate pH 5.5, 4 h light, 0.22 million lux hours): produced more H2O2
